This note sets out measurements from ChEMBL document CHEMBL1201862, “PubChem BioAssay data set” (2004).

Among the test systems are A549; K562; SNB-19; T47D; COLO 205; Malme-3M; HT-29; SN12C; OVCAR-4; EKVX; MOLT-4; OVCAR-5; HL-60; M14; SNB-75; UACC-62; HCC 2998; SF-539; IGROV-1; 786-0.
Assay in all cases: NCI anticancer screen, dose series, 48 h

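How tested: cells in 96-well plates exposed to compound for 48 hours at five concentrations. At the GI50, growth is halved.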 Activity calls are given as the source filed them. Rule as the data show it: active = GI50 up to about 1.1 µM and inactive = higher.

For `CCOC(=O)c1cn(CC)c2ccc3c(c2c1=O)S(=O)(=O)C=C3`, the GI50 with A549, with K562, with SNB-19, with T47D, in the assay with COLO 205 and with Malme-3M was > 100 µM (inactive) throughout. Also, the GI50 with HT-29, with SN12C, in the assay with OVCAR-4, with EKVX, in the assay on MOLT-4 and in the assay on OVCAR-5 was > 100 µM (inactive) each time. The GI50 with HL-60, in the assay with M14, in the assay with SNB-75, with UACC-62, with HCC 2998 and in the assay on SF-539 was > 100 µM (inactive) in each case. Besides, the GI50 in the assay with IGROV-1 and in the assay on 786-0 was > 100 µM (inactive) throughout.

As to `O=C1C(=Cc2ccccc2[N+](=O)[O-])N=C(c2ccccc2)N1n1c(-c2ccccc2)nc2ccccc2c1=O`, the GI50 was 35.7 µM (inactive) with A549; 31.8 µM (inactive) in the assay with K562; 35.3 µM (inactive) with SNB-19; 21 µM (inactive) in the assay on T47D; 31.3 µM (inactive) with COLO 205; 25.1 µM (inactive) in the assay on Malme-3M. The GI50 in the assay on HT-29 was 32.1 µM (inactive); in the assay on SN12C, 23 µM (inactive); in the assay on OVCAR-4 it was 33.4 µM (inactive); in the assay with EKVX it was 33.4 µM (inactive); in the assay on MOLT-4, 27.8 µM (inactive); in the assay on OVCAR-5, 71.3 µM (inactive). The GI50 with HL-60 was > 10 µM (inactive); in the assay with M14, 42.5 µM (inactive); in the assay on SNB-75, 35.6 µM (inactive); with UACC-62 it was 19.1 µM (inactive); with HCC 2998, 35.8 µM (inactive); in the assay with SF-539, 25.8 µM (inactive). In addition, the GI50 was 32.2 µM (inactive) with IGROV-1 and 38 µM (inactive) in the assay with 786-0.

Turning to `NCC1Nc2ccccc2[C@@H](O)C1O` (stereo not given in full), the GI50 with A549, with K562, in the assay with SNB-19, in the assay with T47D, with COLO 205 and with Malme-3M was > 100 µM (inactive) throughout. Moreover, the GI50 in the assay with HT-29, with SN12C, in the assay on OVCAR-4, with EKVX, in the assay with MOLT-4 and with OVCAR-5 was > 100 µM (inactive) in each case. The GI50 with HL-60, with M14, with SNB-75, in the assay on UACC-62, in the assay with HCC 2998 and with SF-539 was > 100 µM (inactive) each time. Besides, the GI50 with IGROV-1 and with 786-0 was > 100 µM (inactive) throughout.

As for `C=C1CC/C=C(\C)C(=O)C[C@@H]2[C@@H]1CC2(C)C` [BUDDLEDIN C], the GI50 with A549 was 13.9 µM (inactive); in the assay with K562 it was 1.82 µM (inactive); with SNB-19 it was 12.6 µM (inactive); in the assay with T47D, 2.31 µM (inactive); in the assay with COLO 205, 1.8 µM (inactive); with Malme-3M it was 2.48 µM (inactive). The GI50 with HT-29 is 2.44 µM (inactive); with SN12C, 1.59 µM (inactive); in the assay on OVCAR-4 it was 0.743 µM (active); with EKVX it was 7.45 µM (inactive); with MOLT-4, 0.184 µM (active); with OVCAR-5, 9.46 µM (inactive). For the same compound, the GI50 was 0.129 µM (active) with HL-60; 3.69 µM (inactive) in the assay on M14; 10.6 µM (inactive) in the assay with SNB-75; 5.96 µM (inactive) in the assay on UACC-62; 3.4 µM (inactive) with HCC 2998; 2.31 µM (inactive) in the assay with SF-539. The GI50 was 3.26 µM (inactive) in the assay with IGROV-1 and 0.975 µM (active) in the assay on 786-0.
